What was measured:
[1] = system: symptomatic HCM patients; test: 31P cardiac magnetic resonance spectroscopy, resting myocardial energetics (PCr/γ-ATP ratio) in HCM study; type: in vivo, human
Source text: (§1) The study was approved by the South Birmingham Research Ethics Committee and the investigation conforms with the principles outlined in the Declaration of Helsinki All study participants provided written informed consent. The study was a randomized, double blind, placebo-controlled parallel-group design of minimum 3 months duration. FIG. 3 represents a flow chart of the study. The pre-defined primary end point was peak oxygen consumption (peak VO2). Pre-defined secondary end points were symptomatic status, resting myocardial energetics (PCr/γ-ATP ratio) and diastolic function at rest and during exercise (nTTPF). 33 controls of similar age and gender distribution were recruited for comparison with baseline data of HCM patients. All controls had no history or symptoms of any cardiovascular disease with normal ECG and echocardiogram (LVEF≧55%).
Patients were recruited from dedicated cardiomyopathy clinics at The Heart Hospital, University College London Hospitals, London and Queen Elizabeth Hospital, Birmingham, UK between 2006 and 2008. […]
In vivo myocardial energetics were measured using a MRS at 3-Tesla Phillips Achieva 3T scanner (Shivu G N, Abozguia K, Phan T T, Ahmed I, Henning A, Frenneaux M. (31)P magnetic resonance spectroscopy to measure in vivo cardiac energetics in normal myocardium and hypertrophic cardiomyopathy: Experiences at 3T. Eur J Radiol 2008). A java magnetic resonance user interface v3.0 (jMRUI) was used for analysis (see Naressi A, Couturier C, Castang I, de Beer R, Graveron-Demilly D. Java-based graphical user interface for MRUI, a software package for quantitation of in vivo/medical magnetic resonance spectroscopy signals. Comput Biol Med 2001; 31(4):269-286)). […] Data were analyzed by an investigator who was blinded to the participants' clinical status. […]
(§2) Following baseline studies, patients were randomized in a double-blind fashion to receive either perhexiline (n=25) or placebo (n=21) 100 mg OD. […] At the end of study, patients were re-evaluated as described earlier.
Data were analyzed using SPSS ver. […]

[2] = system: symptomatic HCM patients; test: Radionuclide ventriculography, diastolic filling (nTTPF) at rest and during exercise in HCM study; type: in vivo, human
Source text: as §1
Patients were recruited from dedicated cardiomyopathy clinics at The Heart Hospital, University College London Hospitals, London and Queen Elizabeth Hospital, Birmingham, UK between 2006 and 2008. Inclusion criteria were 18 to 80 years old symptomatic HCM patients (predominant symptom breathlessness) in sinus rhythm with reduced peak VO2 (<75% of predicted for age and gender) and no significant LVOT obstruction at rest (gradient<30 mmHg). […]
Diastolic filling were assessed by equilibrium R-wave gated blood pool scintigraphy using a standard technique at rest and during graded semi erect exercise on a cycle ergometer (Atherton J J, Moore T D, Lele S S et al. Diastolic ventricular interaction in chronic heart failure. Lancet 1997; 349 (9067):1720-1724; Lele S S, Macfarlane D, Morrison S, Thomson H, Khafagi F, Frenneaux M. Determinants of exercise capacity in patients with coronary artery disease and mild to moderate systolic dysfunction. Role of heart rate and diastolic filling abnormalities. Eur Heart J 1996; 17(2):204-212). Peak left ventricular filling rate in terms of end-diastolic count per second (EDC/s) and time to peak filling normalised for R—R interval (nTTPF) in milliseconds were measured at rest and during exercise (50% of heart rate reserve). […]
as §2
(§3) Data were analyzed using SPSS ver. 15.0 for Window and Microsoft Office Excel 2007, and expressed as Mean±Standard Deviation (SD). Comparison of continuous variables between Perhexiline and Placebo baseline data were determined by unpaired Student's t-test (2-tail) if variables were normally distributed and the Mann-Whitney U-test if the data were non-normally distributed. […]

[3] = system: symptomatic HCM patients; test: Side effects and deaths in HCM study; type: in vivo
Source text: as §1, with “(nTTPF).” for “(nTTPF). 33 controls of similar age and gender distribution were recruited for comparison with baseline data of HCM patients. All controls had no history or symptoms of any cardiovascular disease with normal ECG and echocardiogram (LVEF≧55%).”
Diabetic patients were also excluded to maintain the blindness of the study as Perhexiline may lead to a reduction in plasma glucose in such patients necessitating a reduction in anti-diabetic therapy. 46 consecutive consenting patients who met these entry criteria were recruited into the study.
(§4) Following baseline studies, patients were randomized in a double-blind fashion to receive either perhexiline (n=25) or placebo (n=21) 100 mg OD. Serum perhexiline levels were obtained at 1 and 4 weeks after initiation of the drug. Dose adjustments were advised by an unblinded physician according to serum level to achieve therapeutic level and to avoid drug toxicity. Identical dosage adjustments were also made for randomly allocated placebo-treated patients by the unblinded observer to ensure that blinding of the investigators was maintained. At the end of study, patients were re-evaluated as described earlier.

[4] = system: symptomatic HCM patients; test: Cardiopulmonary exercise test (peak oxygen consumption), randomized double-blind placebo-controlled study in HCM; type: in vivo, human
Source text: as §1
(§5) Patients were recruited from dedicated cardiomyopathy clinics at The Heart Hospital, University College London Hospitals, London and Queen Elizabeth Hospital, Birmingham, UK between 2006 and 2008. Inclusion criteria were 18 to 80 years old symptomatic HCM patients (predominant symptom breathlessness) in sinus rhythm with reduced peak VO2 (<75% of predicted for age and gender) and no significant LVOT obstruction at rest (gradient<30 mmHg). Exclusion criteria were presence of epicardial coronary artery disease, abnormal liver function test, concomitant use of amiodarone or selective serotonin reuptake inhibitors (due to potential drug interactions with perhexiline), peripheral neuropathy and women of childbearing potential. Diabetic patients were also excluded to maintain the blindness of the study as Perhexiline may lead to a reduction in plasma glucose in such patients necessitating a reduction in anti-diabetic therapy. 46 consecutive consenting patients who met these entry criteria were recruited into the study.
This was performed using a Schiller CS-200 Ergo-Spiro exercise machine which was calibrated before every study. […]
as §2, §3

[5] = system: symptomatic HCM patients; test: Symptomatic status assessment (NYHA class, Minnesota Living with heart failure questionnaire) in HCM study; type: in vivo, human
Source text: as §1, §5
All HCM patients filled in Minnesota Living with heart failure questionnaire and were also assessed for NHYA class.
as §4
Data were analyzed using SPSS ver. 15.0 for Window and Microsoft Office Excel 2007, and expressed as Mean±Standard Deviation (SD). Comparison of continuous variables between Perhexiline and Placebo baseline data were determined by unpaired Student's t-test (2-tail) if variables were normally distributed and the Mann-Whitney U-test if the data were non-normally distributed. ANCOVA with baseline values as covariates was performed to test for the significance of differences in the perhexiline versus placebo group after treatment. For the primary end point, the sample size required to detect a change in peak Vo2 of 3 ml/kg/min versus placebo group with a power of 90% and probability of 5% is 44. 30 patients will be required to identify a 5% change in cardiac PCr/ATP ratio with a power of 90% and a p value of <0.05. 40 patients will be required to detect a change ≧25% in nTTPF with power of 0.99 with probability of 5%. Therefore, we aimed to study 50 patients including the drop-outs, 32 of them will take part in the MRS study.

[6] = perhexiline group (n=25), during the first week of treatment

C1CCC(C(CC2CCCCN2)C2CCCCC2)CC1 (centres unmarked) [perhexiline, 2-(2,2-dicyclohexylethyl) piperidine]
Effect on PCr/ATP ratio (energetic status of heart), in words ([1]; FIG. 5B legend, unchanged in placebo group): improves | PCr/γATP ratio after treatment ([1]; perhexiline group, resting, after treatment, p=0.003 vs placebo): 1.73±0.02 | PCr/γATP ratio at baseline ([1]; perhexiline group, resting, before treatment, mean±SD): 1.27±0.02 | Effect on nTTPF response to exercise, in words ([2]; FIG. 5D legend, p=0.03 vs placebo): normalises the response to similar to that seen in healthy controls | nTTPF at rest on therapy ([2]; perhexiline group, on therapy, at rest): 0.19 ± 0.003 s | nTTPF during exercise on therapy ([2]; perhexiline group, on therapy, exercise at 50% of heart rate reserve): 0.19 ± 0.004 s | nTTPF change rest to exercise on therapy ([2]; perhexiline group, on therapy, p=0.03 between perhexiline and placebo response): 0.00 ± 0.003 s | Side effects: dizziness (number of patients) [3, 6]: 2 | Side effects: transient nausea (number of patients) [3, 6]: 3 | Deaths during the study period ([3]; whole study, perhexiline and placebo groups): no deaths | Effect on peak VO2 (exercise capacity), in words ([4]; FIG. 5A legend, p=0.003 vs placebo): increases | Peak VO2 at baseline ([4]; perhexiline group (n=25), before treatment, mean±SD): 22.2 ± 0.2 mL/min/kg | Peak VO2 after treatment ([4]; perhexiline group, 100 mg OD titrated to serum level, minimum 3 months, p=0.003 vs placebo response): 24.29 ± 0.2 mL/min/kg | Increase in Peak VO2 after treatment ([4]; perhexiline group, after treatment vs baseline, placebo fell by -1.23, p=0.003): 2.09 mL/min/kg | NYHA score (of breathlessness), in words ([5]; FIG. 5E legend): falls (improves) | Minnesota living with heart failure questionnaire score, in words ([5]; FIG. 5F legend): falls (=improved quality of life) | Minnesota Living with heart failure questionnaire score after treatment ([5]; perhexiline group, after treatment, fall in score = improvement, p<0.001 vs placebo): 28±0.75 | Minnesota Living with heart failure questionnaire score at baseline ([5]; perhexiline group, before treatment): 36.13±0.94 | Patients with worsening in NYHA classification ([5]; perhexiline group, placebo 20 percent): 8% | Patients with improvements in NYHA classification ([5]; perhexiline group, placebo 30 percent): 67%
